Where “and” joins values, the source holds several entries; their conditions need not be identical. Equal values may be shown once. Entries after “also recorded” stand apart in the source; their conditions may differ. Read-outs that look alike come from different tables or passages of the source.
Columns and labels:
[1] = system: B16-F10 syngeneic model; experiment: Subcutaneous B16-F10 syngeneic model, tumor growth; assay type: in vivo, C57BL/6 mice
Experimental: In order to evaluate the in vivo efficacy of SIS3 and novel compounds of the present invention, a study has been conducted in treatment of the subcutaneous B16-F10 syngeneic models.
• Animal species and strain: C57BL/6 mice • History of treatment: Naive • Sex, age and weight: Female, 6-8 weeks • Breeder/supplier: Shanghai SLAC Laboratory Animal Co. Ltd • Adaptation: At least 7 days • Room: SPF Room • Room temperature: 20-26° C. • Room relative humidity: 40-70% • Light cycle: Fluorescent light for 12-hour light (08:00-20:00) and 12-hour dark • Animal hosting: 2-5 mice/cage each group • Food: Free access to food • Water: Free access to water (municipal tap water filtered by reverse osmosis or high-pressure sterilizer)
B16-F10 cell was maintained at 37° C. under 5% CO2 in DMEM medium supplemented with 10% FBS and were subsequently cultured within 10 passages before inoculated into the mice.
B16-F10 cells (3×10^5 in 100 μL of serum-free medium) were inoculated to each of C57BL/6 mice via s.c. under anesthesia by 3-4% isoflurane. Each group contains 15 mice.
When average tumor volume reached 35-60 mm^3, 15 mice were randomized into group 6. The day of inoculation was denoted as day 0.
Tumor dimensions were measured on Day 4, 5, 6, 8, 11, 13, 15 and 18, after inoculation in 2 dimensions with calipers.
When required, tumor volume was measured daily. The tumor volume (V) was calculated as follows: V=(length×width^2)/2.
The individual relative tumor volume (RTV) was calculated as follows: RTV=Vt/V0, where Vt was the volume on each day, and V0 was the volume at the beginning of the treatment.
Tumor growth inhibition (TGI), TGI=(1−(Ti−T0)/(Ci−C0))×100%; Ti and Ci as the mean tumor volumes of the treatment and control groups on the measurement day; T0 and C0 as the mean tumor volumes of the treatment and control groups on day 0
Results were expressed as mean±S.E.M. Comparisons between two groups were made by Dunnett's multi-comparison test, p<0.05 were considered as significant.

[2] = Aqueous solubility assay (shake-flask, LC/MS/MS); assay type: physicochemical; details: for solubility at 24 h: thermodynamic from solid, 25° C., SIS3 hydrochloride salt, MO-00005 free base, read-out: Conc. Of Sample (ug/mL), aqueous solubility
Experimental: Poorly soluble compounds can dramatically reduce productivity in drug discovery and development. Solubility assays involve assessment of kinetic solubility (from DMSO stock solution) using a shake-flask technique in a plate format and LC/MS/MS analysis.
• Analytical Column: YMC ODS-AM S-3 120A, 3×50 mm column with Guard. • Flow Rate: 500 ul/min • Mobil Phase: Isocratic 50% acetonitrile: 50% 20 mM Ammonium Acetate pH 4. Back Pressure: 1400 psi • Column Temperature: Ambient, • Autosampler Setting: Injection Volume: 5 ul, Loop Volume: 100 ul, Tray Temperature: 4° C. • Needle wash: Vial position 100. Needle wash solution: 50% Methanol water
• Component Mass Molarity • Sodium bicarbonate (mw: 84 g/mol) 0.11628 g 0.0461 M • Sodium carbonate (anhydrous) (mw: 106 g/mol) 0.17127 g 0.0539 M • Tris Buffer pH 7.7 (100 mL) • Add 0.363 g of tris to 30 mL water. Check pH at room temperature the pH should be 7.7 with acetic acid. • Acetate Buffer pH 3.6 (30 mL) • Component Mass Molarity • Sodium Acetate (anhydrous) (mw: 82 g/mol) 0.01188 g 0.0048 M • Acetic Acid (mw: 60.05 g/mol) 0.17145 g 0.0952 M (0.17145 g=[…])
Then run all samples at this dilution. • (xi) Run samples in duplicate and estimate aqueous solubility.
As such, it may be expected that the hydrochloride salt will have better solubility in unbuffered aqueous solutions. There the thermodynamic equilibrium dissolution concentrations of both compounds were determined also in buffered solutions at pH 4, 7.7, and 10.4 in addition to unbuffered water.

[3] = molecular target: T1, CYP2C9 (Homo sapiens, UniProt P11712); experiment: Cytochrome P450 inhibition assay, human liver microsomes, CYP2C9; assay type: in vitro ADME; details: probe diclofenac, diclofenac substrate, read-out: CYP2C9 inhibition (HLM, diclofenac substrate) Inhibition (%)
T1 construct: CONSTRUCT DETAILS: Microsomes; from tissue; host or cells: human liver microsomes
T1 sequence (P11712 whole entry): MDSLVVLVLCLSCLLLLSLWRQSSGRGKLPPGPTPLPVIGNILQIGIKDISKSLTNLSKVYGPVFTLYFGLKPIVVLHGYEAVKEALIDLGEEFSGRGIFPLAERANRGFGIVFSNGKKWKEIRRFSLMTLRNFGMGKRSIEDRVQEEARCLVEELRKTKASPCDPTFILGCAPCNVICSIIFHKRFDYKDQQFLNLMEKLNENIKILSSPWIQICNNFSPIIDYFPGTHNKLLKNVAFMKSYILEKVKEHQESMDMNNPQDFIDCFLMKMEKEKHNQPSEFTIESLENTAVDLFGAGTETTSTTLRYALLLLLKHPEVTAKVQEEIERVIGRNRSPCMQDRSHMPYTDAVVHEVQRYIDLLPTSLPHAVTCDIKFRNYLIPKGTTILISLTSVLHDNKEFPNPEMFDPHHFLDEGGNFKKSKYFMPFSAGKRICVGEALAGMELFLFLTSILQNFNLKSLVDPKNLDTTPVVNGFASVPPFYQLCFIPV
Description: • SUBSTRATE: Diclofenac

[4] = molecular target: T2, CYP2D6 (Homo sapiens, UniProt P10635); experiment: Cytochrome P450 inhibition assay, human liver microsomes, CYP2D6; assay type: in vitro ADME; details: probe dextromethorphan, dextromethorphan substrate, read-out: CYP2D6 inhibition (HLM, dextromethorphan substrate) Inhibition (%)
T2 construct: CONSTRUCT DETAILS: Microsomes; from tissue; host or cells: human liver microsomes
T2 sequence (P10635 whole entry): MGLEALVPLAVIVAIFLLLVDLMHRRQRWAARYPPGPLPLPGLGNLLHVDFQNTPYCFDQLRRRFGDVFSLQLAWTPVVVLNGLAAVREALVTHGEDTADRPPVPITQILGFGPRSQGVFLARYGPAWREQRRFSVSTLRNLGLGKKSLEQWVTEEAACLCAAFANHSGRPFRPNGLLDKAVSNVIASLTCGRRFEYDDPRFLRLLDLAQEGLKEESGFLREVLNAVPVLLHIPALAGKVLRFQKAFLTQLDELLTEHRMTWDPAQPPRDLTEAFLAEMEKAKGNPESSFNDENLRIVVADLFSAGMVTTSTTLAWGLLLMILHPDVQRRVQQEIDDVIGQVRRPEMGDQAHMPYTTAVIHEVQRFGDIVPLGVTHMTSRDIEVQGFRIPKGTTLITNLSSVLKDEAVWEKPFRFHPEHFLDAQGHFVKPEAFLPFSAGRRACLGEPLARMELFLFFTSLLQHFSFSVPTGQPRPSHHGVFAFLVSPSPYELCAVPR

[5] = system: B16-F10 syngeneic model; experiment: Subcutaneous B16-F10 syngeneic model, tumor growth; assay type: in vivo, C57BL/6 mice; details: 30 mg/kg q.d. * 3W i.p.
[6] = Aqueous solubility assay (shake-flask, LC/MS/MS); assay type: physicochemical
[7] = molecular target: CYP3A4 (Homo sapiens, UniProt P08684); experiment: Cytochrome P450 inhibition assay, human liver microsomes, CYP3A4; details: human
Chain of CYP3A4 (P08684 whole entry): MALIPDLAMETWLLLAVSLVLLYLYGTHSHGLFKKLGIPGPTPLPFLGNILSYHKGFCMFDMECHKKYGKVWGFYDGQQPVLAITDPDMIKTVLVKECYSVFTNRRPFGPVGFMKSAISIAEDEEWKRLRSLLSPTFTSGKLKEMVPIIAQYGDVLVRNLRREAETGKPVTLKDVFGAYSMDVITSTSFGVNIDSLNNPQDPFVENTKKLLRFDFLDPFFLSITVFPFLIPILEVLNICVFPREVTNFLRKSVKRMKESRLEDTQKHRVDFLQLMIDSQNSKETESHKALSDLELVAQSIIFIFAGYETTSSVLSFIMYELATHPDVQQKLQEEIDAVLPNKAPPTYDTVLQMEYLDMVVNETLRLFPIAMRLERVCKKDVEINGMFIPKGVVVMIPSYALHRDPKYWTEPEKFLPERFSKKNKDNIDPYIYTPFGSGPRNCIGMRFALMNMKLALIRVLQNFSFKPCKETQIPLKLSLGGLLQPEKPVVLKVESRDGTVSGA

[8] = single agent, i.p. QD*3 weeks, SIS3 10 and 30 mg/kg, MO-00005 10, 30 and 100 mg/kg, vs vehicle

## COc1cc2c(cc1OC)CN(C(=O)/C=C/c1c(-c3ccccc3)nc3ccccn13)CC2 [Compound 8, (E)-1-(6,7-dimethoxy-3,4-dihydroisoquinolin-2(1H)-yl)-3-(2-phenylimidazo[1,2-a]pyridin-3-yl)prop-2-en-1-one]
[1]; 10 mg/kg q.d. * 3W i.p., Day 4 (estimated value)
  Tumor Sizes (mm3) Mean: 0.62 mm3
[1]; 10 mg/kg q.d. * 3W i.p., Day 4, RTV=Vt/V0
  Relative tumor volume Mean: 0.04
[1]; 10 mg/kg q.d. * 3W i.p., Day 5 (estimated value)
  Tumor Sizes (mm3) Mean: 0.75 mm3
[1]; 10 mg/kg q.d. * 3W i.p., Day 5, RTV=Vt/V0
  Relative tumor volume Mean: 0.04
[1]; 10 mg/kg q.d. * 3W i.p., Day 6 (estimated value)
  Tumor Sizes (mm3) Mean: 4.31 mm3
[1]; 10 mg/kg q.d. * 3W i.p., Day 6, RTV=Vt/V0
  Relative tumor volume Mean: 0.19
[1]; 10 mg/kg q.d. * 3W i.p., Day 8
  Tumor Sizes (mm3) Mean: 38.42 mm3
[1]; 10 mg/kg q.d. * 3W i.p., Day 8, RTV=Vt/V0
  Relative tumor volume Mean: 1.00
[1]; 10 mg/kg q.d. * 3W i.p., Day 11
  Tumor Sizes (mm3) Mean: 151.84 mm3
[1]; 10 mg/kg q.d. * 3W i.p., Day 11, RTV=Vt/V0
  Relative tumor volume Mean: 4.80
[1]; 10 mg/kg q.d. * 3W i.p., Day 11, calculated based on tumor volume of Day 8
  Tumor growth inhibition (%) TGI: 29%
[1]; 10 mg/kg q.d. * 3W i.p., Day 13
  Tumor Sizes (mm3) Mean: 416.04 mm3
[1]; 10 mg/kg q.d. * 3W i.p., Day 13, RTV=Vt/V0
  Relative tumor volume Mean: 12.93
[1]; 10 mg/kg q.d. * 3W i.p., Day 13, calculated based on tumor volume of Day 8
  Tumor growth inhibition (%) TGI: 30%
[1]; 10 mg/kg q.d. * 3W i.p., Day 15
  Tumor Sizes (mm3) Mean: 816.24 mm3
[1]; 10 mg/kg q.d. * 3W i.p., Day 15, RTV=Vt/V0
  Relative tumor volume Mean: 26.76
[1]; 10 mg/kg q.d. * 3W i.p., Day 15, calculated based on tumor volume of Day 8
  Tumor growth inhibition (%) TGI: 23%
[1]; 10 mg/kg q.d. * 3W i.p., Day 18
  Tumor Sizes (mm3) Mean: 2500.45 mm3
[1]; 10 mg/kg q.d. * 3W i.p., Day 18, RTV=Vt/V0
  Relative tumor volume Mean: 93.48
[1]; 10 mg/kg q.d. * 3W i.p., Day 18, calculated based on tumor volume of Day 8
  Tumor growth inhibition (%) TGI: 11%
[1]; 30 mg/kg q.d. * 3W i.p., Day 4 (estimated value)
  Tumor Sizes (mm3) Mean: 0.36 mm3
[1]; 30 mg/kg q.d. * 3W i.p., Day 4, RTV=Vt/V0
  Relative tumor volume Mean: 0.01
[1]; 30 mg/kg q.d. * 3W i.p., Day 5 (estimated value)
  Tumor Sizes (mm3) Mean: 0.56 mm3
[1]; 30 mg/kg q.d. * 3W i.p., Day 5, RTV=Vt/V0
  Relative tumor volume Mean: 0.01
[1]; 30 mg/kg q.d. * 3W i.p., Day 6 (estimated value)
  Tumor Sizes (mm3) Mean: 5.33 mm3
[1]; 30 mg/kg q.d. * 3W i.p., Day 6, RTV=Vt/V0
  Relative tumor volume Mean: 0.16
[1]; 30 mg/kg q.d. * 3W i.p., Day 8
  Tumor Sizes (mm3) Mean: 47.99 mm3
[1]; 30 mg/kg q.d. * 3W i.p., Day 8, RTV=Vt/V0
  Relative tumor volume Mean: 1.00
[1]; 30 mg/kg q.d. * 3W i.p., Day 11, RTV=Vt/V0
  Relative tumor volume Mean: 3.76
[1]; 30 mg/kg q.d. * 3W i.p., Day 11, calculated based on tumor volume of Day 8
  Tumor growth inhibition (%) TGI: 26%
[1]; 30 mg/kg q.d. * 3W i.p., Day 11, listed as MO-00005
  Tumor Sizes (mm3) Mean: 165.30 mm3 and 165.3 mm3
[1]; 30 mg/kg q.d. * 3W i.p., Day 13
  Tumor Sizes (mm3) Mean: 376.62 mm3
[1]; 30 mg/kg q.d. * 3W i.p., Day 13, RTV=Vt/V0
  Relative tumor volume Mean: 10.44
[1]; 30 mg/kg q.d. * 3W i.p., Day 15
  Tumor Sizes (mm3) Mean: 794.11 mm3
[1]; 30 mg/kg q.d. * 3W i.p., Day 15, RTV=Vt/V0
  Relative tumor volume Mean: 21.61
[1]; 30 mg/kg q.d. * 3W i.p., Day 18
  Tumor Sizes (mm3) Mean: 2303.09 mm3
[1]; 30 mg/kg q.d. * 3W i.p., Day 18, RTV=Vt/V0
  Relative tumor volume Mean: 63.87
[1]; 100 mg/kg q.d. * 3W i.p. (group 6), Day 8, RTV=Vt/V0
  Relative tumor volume Mean: 1.00
[1]; 100 mg/kg q.d. * 3W i.p. (group 6), Day 11, RTV=Vt/V0
  Relative tumor volume Mean: 3.70
[1]; 100 mg/kg q.d. * 3W i.p. (group 6), Day 11, calculated based on tumor volume of Day 8
  Tumor growth inhibition (%) TGI: 29%
[1]; 100 mg/kg q.d. * 3W i.p. (group 6), Day 11, listed as MO-00005
  Tumor Sizes (mm3) Mean: 155.10 mm3 and 155.1 mm3
[1]; 100 mg/kg q.d. * 3W i.p. (group 6), Day 13
  Tumor Sizes (mm3) Mean: 335.85 mm3
[1]; 100 mg/kg q.d. * 3W i.p. (group 6), Day 13, RTV=Vt/V0
  Relative tumor volume Mean: 7.98
[1]; 100 mg/kg q.d. * 3W i.p. (group 6), Day 13, calculated based on tumor volume of Day 8
  Tumor growth inhibition (%) TGI: 46%
[1]; 100 mg/kg q.d. * 3W i.p. (group 6), Day 15
  Tumor Sizes (mm3) Mean: 724.03 mm3
[1]; 100 mg/kg q.d. * 3W i.p. (group 6), Day 15, RTV=Vt/V0
  Relative tumor volume Mean: 17.31
[1]; 100 mg/kg q.d. * 3W i.p. (group 6), Day 15, calculated based on tumor volume of Day 8
  Tumor growth inhibition (%) TGI: 32%
[1]; 100 mg/kg q.d. * 3W i.p. (group 6), Day 18
  Tumor Sizes (mm3) Mean: 2107.22 mm3
[1]; 100 mg/kg q.d. * 3W i.p. (group 6), Day 18, RTV=Vt/V0
  Relative tumor volume Mean: 50.47
[1]; 100 mg/kg q.d. * 3W i.p. (group 6), Day 18, calculated based on tumor volume of Day 8
  Tumor growth inhibition (%) TGI: 25%
[1]; 100 mg/kg q.d. * 3W i.p. (group 6, randomized at tumor volume 35-60 mm^3), Day 8
  Tumor Sizes (mm3) Mean: 42.19 mm3
[1]; high dose group, after 18 days of the experiment
  reduction of tumor weight compared to the control group: ~50%
[1]; [8]
  anti-tumor activity against the B16-F10 syngeneic model (in words): anti-tumor response; also recorded: significant anti-tumor activity; also recorded: inhibits the growth of cancer
  efficacy on tumor weight (in words): significant efficacy on tumor weight
[2]; aqueous buffer pH 4.03, aqueous buffer, pH 4.03 buffer
  solubility at 24 h: 598 µg/mL
[2]; aqueous buffer pH 7.70, pH 7.7, aqueous buffer, pH 7.70 buffer
  solubility at 24 h: 269 µg/mL
[2]; pH of 4.0
  aqueous solubility relative to the solubility of SIS3: 35 times
[2]; unbuffered water
  solubility at 24 h: 321 µg/mL
[3]
  inhibition at 10 µM: 66.9%
[4]
  inhibition at 10 µM: -2.74%
[5]; Day 13, calculated based on tumor volume of Day 8
  Tumor growth inhibition (%) TGI: 39%
[5]; Day 15, calculated based on tumor volume of Day 8
  Tumor growth inhibition (%) TGI: 26%
[5]; Day 18, calculated based on tumor volume of Day 8
  Tumor growth inhibition (%) TGI: 18%
[6]; aqueous buffer pH 10.63, aqueous buffer, thermodynamic from solid, pH 10.63 buffer, 25° C., 24 hours, SIS3 hydrochloride salt, MO-00005 free base, read-out: Conc. Of Sample (ug/mL), aqueous solubility
  solubility at 24 h: 280 µg/mL
[6]; pH 10.63
  aqueous solubility relative to the solubility of SIS3: 117 times
[7]; probe midazolam
  inhibition at 10 µM: 41.3%
[7]; probe testosterone
  inhibition at 10 µM: 2.22%

Reference: patent US12090149B2, “SMAD3 inhibitors” (Moexa Pharmaceuticals Limited, priority 2018, dated 2024)
